Patent publication US20200325518A1, “Systems and Methods for Metabolic Assessment Utilizing 1-Methoxy-PMS Field” (priority 2019, published 2020)

Tested on: E. coli
Assay: CLSI overnight reference method MIC of antimicrobials against E. coli strains
Assay type: cell-based
Details: for MIC (CLSI Ref): unit assumed
[1] = E. coli strain Clinical Sample 1
[2] = E. coli strain Clinical Sample 2
[3] = E. coli strain Clinical Sample 4
[4] = E. coli strain Clinical Sample 5
[5] = E. coli strain Clinical Sample 6
[6] = E. coli strain Clinical Sample 7
[7] = E. coli strain Clinical Sample 8
[8] = E. coli strain Clinical Sample 9
[9] = E. coli strain Clinical Sample 10
[10] = E. coli strain Clinical Sample 11
[11] = E. coli strain Clinical Sample 12
[12] = E. coli strain Clinical Sample 13

Compound | MIC (CLSI Ref) (E. coli strain BEI 4.097) [mg/L] | MIC (CLSI Ref) (E. coli strain CDC Carba36) [mg/L] | MIC (CLSI Ref) [1] [mg/L] | MIC (CLSI Ref) [2] [mg/L] | MIC (CLSI Ref) [3] [mg/L] | MIC (CLSI Ref) [4] [mg/L] | MIC (CLSI Ref) [5] [mg/L] | MIC (CLSI Ref) [6] [mg/L] | MIC (CLSI Ref) [7] [mg/L] | MIC (CLSI Ref) [8] [mg/L] | MIC (CLSI Ref) [9] [mg/L] | MIC (CLSI Ref) [10] [mg/L] | MIC (CLSI Ref) [11] [mg/L] | MIC (CLSI Ref) [12] [mg/L] | CLSI breakpoint interpretation [2]
C[C@H]1[C@H](NC(=O)/C(=N\OC(C)(C)C(=O)O)c2csc(N)n2)C(=O)N1S(=O)(=O)O [ATM, Aztreonam] | < 0.25 | 8 | < 0.25 | 0.5 | < 0.25 | < 0.25 | < 0.25 | < 0.25 | 64 | 32 | < 0.25 | < 0.25 | < 0.25 | < 0.25 | –
Piperacillin/tazobactam [TZP] | 4 | 128 | 4 | 8 | 4 | 4 | 2 | 4 | 32 | > 128 | 2 | 2 | 2 | 32 | –
C[C@@H](O)[C@H]1C(=O)N2C(C(=O)O)=C(S[C@@H]3CN[C@H](C(=O)Nc4cccc(C(=O)O)c4)C3)[C@H](C)[C@H]12 [ERT, Ertapenem] | 0.008 | 0.12 | 0.008 | 0.015 | 0.008 | 0.008 | 0.008 | 0.008 | 0.25 | 0.12 | 0.008 | 0.008 | 0.008 | 0.016 | –
CO/N=C(\C(=O)N[C@@H]1C(=O)N2C(C(=O)O)=C(CSc3nc(=O)c(=O)[nH]n3C)CS[C@H]12)c1csc(N)n1 [CRO, Ceftriaxone] | < 0.12 | 1 | < 0.12 | 2 | < 0.12 | < 0.12 | < 0.12 | < 0.12 | 64 | > 64 | < 0.12 | < 0.12 | < 0.12 | < 0.12 | I
C[C@H]1COc2c(N3CCN(C)CC3)c(F)cc3c(=O)c(C(=O)O)cn1c23 [LVX, Levofloxacin] | < 0.06 | > 8 | < 0.06 | < 0.06 | > 8 | > 8 | < 0.06 | < 0.06 | < 0.06 | > 8 | 8 | < 0.06 | 0.5 | < 0.06 | –
CN(C)[C@@H]1C(=O)C(C(N)=O)=C(O)[C@@]2(O)C(=O)C3=C(O)c4c(O)cccc4[C@@](C)(O)[C@H]3C[C@@H]12 [TET, Tetracycline] | 32 | 8 | 4 | > 32 | 4 | > 32 | 2 | 4 | 8 | 4 | 4 | 4 | 4 | 4 | R
CC(C)(O/N=C(\C(=O)N[C@@H]1C(=O)N2C(C(=O)[O-])=C(C[n+]3ccccc3)CS[C@H]12)c1csc(N)n1)C(=O)O [CAZ, Ceftazidime] | 0.25 | 4 | 0.25 | 2 | 0.25 | 0.25 | 0.12 | 0.25 | > 32 | > 32 | 0.12 | 0.25 | 0.12 | 0.12 | –
Ampicillin/sulbactam [SAM] | 8 | > 32 | 4 | 16 | 16 | 8 | 2 | 16 | 64 | 32 | 16 | 4 | 2 | > 32 | I
Penicillin | 16 | > 16 | > 16 | > 16 | > 16 | > 16 | 16 | > 16 | > 16 | > 16 | > 16 | > 16 | > 16 | 16 | –
Trimethoprim-Sulfamethoxazole [SXT] | < 0.5 | < 0.5 | < 0.5 | 4 | > 32 | > 32 | 2 | > 32 | < 0.5 | > 32 | > 32 | < 0.5 | < 0.5 | < 0.5 | R
C[C@@H](O)[C@H]1C(=O)N2C(C(=O)O)=C(S[C@@H]3CN[C@H](C(=O)N(C)C)C3)[C@H](C)[C@H]12 [MEM, Meropenem] | < 0.06 | < 0.06 | < 0.06 | < 0.06 | < 0.06 | < 0.06 | < 0.06 | < 0.06 | < 0.06 | < 0.06 | < 0.06 | < 0.06 | < 0.06 | < 0.06 | –
C[C@@H](O)[C@H]1C(=O)N2C(C(=O)O)=C(SCCN=CN)C[C@H]12 [IPM, Imipinem] | < 0.12 | < 0.12 | < 0.12 | < 0.12 | 0.25 | < 0.12 | < 0.12 | < 0.12 | 0.5 | < 0.12 | < 0.12 | 0.25 | < 0.12 | < 0.12 | –
Gentamycin | 0.5 | 2 | 0.5 | 4 | 0.5 | 2 | 0.5 | 0.5 | 1 | 1 | > 16 | 2 | 1 | 1 | –
NC[C@H]1O[C@H](O[C@H]2[C@H](O)[C@@H](O[C@H]3O[C@H](CO)[C@@H](O)[C@H](N)[C@H]3O)[C@H](N)C[C@@H]2N)[C@H](N)C[C@@H]1O [TOB, Tobramycin] | 1 | 1 | 2 | 1 | 1 | 1 | 1 | 1 | 2 | 4 | 16 | 1 | 1 | 1 | –
